# Experimental data published in patent US12240811B2, “N-heterocyclic five-membered ring-containing capsid protein assembly inhibitor, pharmaceutical composition and uses thereof” (CHIA TAI TIANQING PHARMACEUTICAL GROUP CO., LTD., priority 2019, dated 2025).
# Key:
# HBV DNA in serum = experiment: Antiviral effect evaluation in AAV mouse model (rAAV8-1.3HBV); format: in vivo, C57BL/6 mice; conditions: for Reduction levels (log10) of HBV DNA in serum, Day 28: Day 28 (1 week after administration suspended)
# Protocol: 6-8 week old male C57BL/6 mice (Shanghai Lingchang Biotechnology Co., Ltd.) were injected with rAAV8-1.3HBV virus (Beijing FivePlus Gene Technology Ltd., adr subtype) at tail vein at a dose of 1×10^11 vg. Blood was collected from the orbits of the mice on week 2 and 4 after the virus injection. The serum was separated, and the expression levels of HBeAg and HBsAg in the serum and the HBV DNA copy number were detected to evaluate whether the model was successfully established. According to the results of quantitative detection of serological HBeAg, HBsAg and HBV DNA, the mice having HBV DNA expression level greater than 1×10^4 IU/mL, HBeAg expression level greater than 1×10^3 NCU/mL and HBsAg expression level greater than 1×10^3 ng/mL were selected. The mice were grouped into a blank control group, a vehicle control group, and a test substance group. The mice in each group were continuously administered intragastrically once daily for 3 weeks and then the administration was suspended for 1 week. During the experiment, blood was collected from the orbits every other week, serum was separated, and the DNA content was detected by fluorescent quantitative PCR method.
# [1] = Stability of liver microsomes in vitro, mouse; format: in vitro ADME
# Protocol: 300 μL of a final incubation system contains 30 μL of liver microsomes (protein concentration: 0.15 mg/mL, Corning), 30 μL NADPH+MgCl2, 3 μL substrate (formulated with acetonitrile), and 237 μL PBS buffer. Duplicate incubation systems of 0.3 mL each were formulated for each species. A total volume of 270 μL of a uniformly mixed solution of the substrate and the enzyme was formulated in each tube, the solution and NADPH were pre-incubated at 37° C. for 5 minutes, respectively. Then 30 μL of the mixed solution of NADPH+MgCl2 was added for reaction. 50 μL of the reaction solution was taken out at 0, 10, 30, and 60 mins, and the reaction was terminated with 300 μL of ice acetonitrile containing an internal standard.
# Sample pre-treatment: To 50 μL of the incubated sample was added 300 μL of ice acetonitrile containing diazepam as an internal standard and then precipitated. After vortexing for 5 minutes, the sample was centrifugated (12000 rpm, 4° C.) for 10 minutes. 75 μL of the supernatant was pipetted into a 96-well plate, and then diluted with 75 μL ultrapure water and mixed uniformly. 0.5 μL of the resulting solution was injected and analyzed by LC-MS/MS.
# [2] = Plasma protein binding assay, rat plasma; format: in vitro ADME
# Protocol: Formulation of plasma sample: 495 μL of blank plasmas of the corresponding species (mouse, rat, dog, monkey, and human) were drawn respectively, and thereto was added 5 μL of the corresponding test compound solution or positive control to give plasma sample solutions having a plasma drug concentration of the compound of 1 μM, and 10 μM, respectively (formulated with acetonitrile).
# The pre-treated dialysis membrane was placed in a high-throughput equilibrium dialysis device, and 100 μL of the plasma sample solution and PBS buffer solution were drawn and added respectively to both sides of the dialysis membrane (sample side and buffer side) (n=3). After the equilibration device was sealed with a film, it was incubated at 37° C. overnight (100 rpm). After dialysis equilibrium was reached, 50 μL samples were drawn from the sample side and the buffer side, respectively, and the reaction was terminated by adding ice acetonitrile containing an internal standard.
# Sample pre-treatment: To 50 μL of the plasma-side sample was added 450 μL of ice acetonitrile containing an internal standard, and then precipitated. After vortexing for 5 minutes, the sample was centrifugated (12000 rpm, 4° C.) for 10 minutes. 75 μL of the supernatant was pipetted, and 75 μL of ultrapure water was added thereto for dilution and mixed uniformly. 1 μL of the resulting solution was injected for analysis. […]
compound,measurement,setting,value
"Cc1[nH]c(C(=O)C(=O)N[C@@H](C)C(F)(F)F)c(C)c1C(=O)Nc1ccc(F)c(C#N)c1 [Example 1, (S)—N-(3-cyano-4-fluorophenyl)-2,4-dimethyl-5-(2-oxo-2-((1,1,1-trifluoroprop-2-yl)amino)acetyl)-1H-pyrrole-3-carboxamide]","Reduction levels (log10) of HBV DNA in serum, Day 7",HBV DNA in serum; 1 mpk intragastric once daily,2.49 log10
same,"Reduction levels (log10) of HBV DNA in serum, Day 14",HBV DNA in serum; 1 mpk intragastric once daily,3.41 log10
same,"Reduction levels (log10) of HBV DNA in serum, Day 21",HBV DNA in serum; 1 mpk intragastric once daily,3.65 log10
same,"Reduction levels (log10) of HBV DNA in serum, Day 28",HBV DNA in serum; 1 mpk,3.25 log10
same,"Reduction levels (log10) of HBV DNA in serum, Day 7",HBV DNA in serum; 10 mpk intragastric once daily,2.67 log10
same,"Reduction levels (log10) of HBV DNA in serum, Day 14",HBV DNA in serum; 10 mpk intragastric once daily,3.80 log10
same,"Reduction levels (log10) of HBV DNA in serum, Day 21",HBV DNA in serum; 10 mpk intragastric once daily,4.30 log10
same,"Reduction levels (log10) of HBV DNA in serum, Day 28",HBV DNA in serum; 10 mpk,3.50 log10
same,Remaining (%) of mouse liver microsomes at 60 min,[1],96%
same,Binding rate (%) Rat,[2]; 1 μM,95.0%
same,Binding rate (%) Rat,[2]; 10 μM,95.3%
